Usually Ki stands for a dissociation constant, usually derived from enzyme kinetics or from competition with a known ligand. Read a low Ki as a stronger hold on the target.

Ki data for 26 compounds are collected here from ChEMBL document CHEMBL1144261, “Synthesis of alkyne derivatives of a novel triazolopyrazine as A(2A) adenosine receptor antagonists” (Bioorg Med Chem Lett, 2005).

The target in one assay is T1, Adenosine receptor A1 (Rattus norvegicus, UniProt P25099).
T1 sequence (P25099 whole entry): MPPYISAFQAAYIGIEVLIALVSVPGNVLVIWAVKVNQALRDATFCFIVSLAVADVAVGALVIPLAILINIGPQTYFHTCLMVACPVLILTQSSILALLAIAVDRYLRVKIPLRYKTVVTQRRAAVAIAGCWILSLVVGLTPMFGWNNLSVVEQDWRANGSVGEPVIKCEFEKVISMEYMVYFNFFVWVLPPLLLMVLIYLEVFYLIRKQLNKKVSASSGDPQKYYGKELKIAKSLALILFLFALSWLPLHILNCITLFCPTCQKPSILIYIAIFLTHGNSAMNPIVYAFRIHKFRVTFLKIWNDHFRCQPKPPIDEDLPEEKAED
The assay is described as follows: Binding affinity towards Adenosine A1 receptor of rat cerebral cortex using [3H]-DPCPX as radioligand.

The next assay has as its target Adenosine receptor A2a (Rattus norvegicus, UniProt P30543). The assay is described as follows: Binding affinity towards Adenosine A2A receptor of rat brain tissues using [3H]ZM-241385 as radioligand.

Bounds are passed on as bounds.

Chain of Adenosine receptor A2a (P30543 whole entry): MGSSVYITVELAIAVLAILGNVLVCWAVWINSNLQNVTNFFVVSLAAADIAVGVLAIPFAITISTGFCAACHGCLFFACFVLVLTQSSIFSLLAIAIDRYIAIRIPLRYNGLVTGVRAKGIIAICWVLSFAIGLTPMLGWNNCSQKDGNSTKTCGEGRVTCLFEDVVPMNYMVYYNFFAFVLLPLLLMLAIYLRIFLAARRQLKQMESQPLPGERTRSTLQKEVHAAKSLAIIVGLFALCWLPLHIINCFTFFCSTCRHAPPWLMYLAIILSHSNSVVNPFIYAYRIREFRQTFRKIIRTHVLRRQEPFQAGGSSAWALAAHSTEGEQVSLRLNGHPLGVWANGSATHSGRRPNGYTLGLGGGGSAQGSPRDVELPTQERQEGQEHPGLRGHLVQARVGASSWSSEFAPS

Consider `Nc1nc(C#CCC2CCCCC2)cn2nc(-c3ccco3)nc12`, for which the results for the inhibition constant Ki on Adenosine receptor A1 and at Adenosine receptor A2a were 680 nM and 280 nM, respectively.
The matching figures for `Nc1nc(C#CCOc2cccnc2)cn2nc(-c3ccco3)nc12`: 110 nM and 92 nM.
As for `Nc1nc(C#CC(O)C2(O)CCCC2)cn2nc(-c3ccco3)nc12` (centres undefined), the Ki on Adenosine receptor A1 was determined as 72 nM; on Adenosine receptor A2a it was 30 nM.
For `CC(C)C(O)(C#Cc1cn2nc(-c3ccco3)nc2c(N)n1)C(C)C` the same measures were 8 nM and 7 nM.
For `CCC(O)(C#Cc1cn2nc(-c3ccco3)nc2c(N)n1)CC` the same measures were 33 nM and 9 nM.
For `Nc1nc(C#CC(O)c2ccccc2)cn2nc(-c3ccco3)nc12` (centres undefined) the same measures were 2400 nM and 340 nM.
Take `Nc1nc(C#CC(O)(c2ccccc2)C(F)(F)F)cn2nc(-c3ccco3)nc12` (centres undefined): the figures for the Ki at Adenosine receptor A1 and at Adenosine receptor A2a were 2200 nM and 74 nM, respectively.
For `CC(O)(C#Cc1cn2nc(-c3ccco3)nc2c(N)n1)c1csc2ccccc12` (centres undefined) the same measures were 340 nM and 33 nM.
The matching figures for `CC(O)(C#Cc1cn2nc(-c3ccco3)nc2c(N)n1)c1ccc([N+]2=CC=NC2)cc1` (centres undefined): 110 nM and 33 nM.
The matching figures for `Nc1nc(C#CC2(N)CCCCC2)cn2nc(-c3ccco3)nc12`: 35 nM and 210 nM.
Turning to `CC(O)(C#Cc1cn2nc(-c3ccco3)nc2c(N)n1)c1ccccc1` (centres undefined), the figures for the Ki at Adenosine receptor A1 and at Adenosine receptor A2a were 41 nM and 12 nM, respectively.
The matching figures for `CC(C#Cc1cn2nc(-c3ccco3)nc2c(N)n1)OC(C)(C)C` (centres undefined): 96 nM and 37 nM.
The matching figures for `Nc1nc(C#CC(O)C2(O)CCC2)cn2nc(-c3ccco3)nc12` (centres undefined): 2.5 nM and 12 nM.
For `Nc1nc(C#CCOc2ccc(F)c(Cl)c2)cn2nc(-c3ccco3)nc12` the same measures were 4300 nM and 310 nM.
With `Cn1nc(OCC#Cc2cn3nc(-c4ccco4)nc3c(N)n2)cc1C(F)(F)F`, the Ki on Adenosine receptor A1 was 1800 nM; at Adenosine receptor A2a, 89 nM.
`CN(C)c1ccc(C(O)(C#Cc2cn3nc(-c4ccco4)nc3c(N)n2)C(F)(F)F)cc1` (centres undefined): the inhibition constant (Ki) on Adenosine receptor A2a was determined as 1100 nM.
As for `CC(O)(C#Cc1cn2nc(-c3ccco3)nc2c(N)n1)Cc1ccncc1` (centres undefined), the values for the Ki at Adenosine receptor A1 and at Adenosine receptor A2a were 100 nM and 1.1 nM, respectively.
Compound `Nc1nc(C#Cc2ccc(F)cc2F)cn2nc(-c3ccco3)nc12` showed a Ki at Adenosine receptor A2a of more than 1000 nM.
Consider `CC(O)(C#Cc1cn2nc(-c3ccco3)nc2c(N)n1)c1ccncc1` (centres undefined), for which the Ki on Adenosine receptor A1 came out at 170 nM; on Adenosine receptor A2a, 25 nM.
For `Nc1nc(C#CCO)cn2nc(-c3ccco3)nc12` the same measures were more than 500 nM and more than 500 nM.
On to `CC(O)(C#Cc1cn2nc(-c3ccco3)nc2c(N)n1)c1cccc(C(F)(F)F)c1F` (centres undefined), for which the affinity at Adenosine receptor A2a corresponds to a Ki of 1600 nM.
For `Nc1nc(C#CCOc2ccccc2)cn2nc(-c3ccco3)nc12`, the Ki at Adenosine receptor A1 came to 530 nM; on Adenosine receptor A2a, 390 nM.
The matching figures for `CC(O)(C#Cc1cn2nc(-c3ccco3)nc2c(N)n1)c1ccc(O)cc1` (centres undefined): 66 nM and 42 nM.
The matching figures for `Nc1nc(C#CC(O)c2csc3ccccc23)cn2nc(-c3ccco3)nc12` (centres undefined): 73 nM and 260 nM.
The matching figures for `Nc1nc(C#CC(O)C2(O)CCCCC2)cn2nc(-c3ccco3)nc12` (centres undefined): 11 nM and 7.3 nM.
Consider `CC(C)CCC(C)(O)C#Cc1cn2nc(-c3ccco3)nc2c(N)n1` (centres undefined), for which the Ki at Adenosine receptor A1 was 24 nM; on Adenosine receptor A2a, 3.7 nM.
